Results from PubChem BioAssay AID248 (DTP/NCI, 2004).
Toxic doses and inconclusive results are not listed.

Tested on: L1210 leukemia ip in BDF1 mice, survival T/C
Assay: NCI In Vivo Anticancer Drug Screen. Data for tumor model L1210 Leukemia (intraperitoneal) in B6D2F1 (BDF1) mice
Settings: endpoint: mean survival time, higher = longer survival
In short: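 Survival endpoint. Drug-treated group vs vehicle group, expressed as T divided by C. Tumor passaged by transplantation.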

[1] = dose: 100.0 mg/kg/injection, schedule: Q04DX003 (ip), vehicle: Klucel (hydroxypropylcellulose) (HPC)
[2] = dose: 200.0 mg/kg/injection, schedule: Q04DX003 (ip), vehicle: Klucel (hydroxypropylcellulose) (HPC)
[3] = dose: 400.0 mg/kg/injection, schedule: Q04DX003 (ip), vehicle: Klucel (hydroxypropylcellulose) (HPC)
[4] = dose: 100.0 mg/kg/injection, schedule: Q04DX002 (ip), vehicle: saline
[5] = dose: 200.0 mg/kg/injection, schedule: Q04DX002 (ip), vehicle: saline
[6] = dose: 400.0 mg/kg/injection, schedule: Q04DX002 (ip), vehicle: saline
[7] = dose: 50.0 mg/kg/injection, schedule: Q01DX009 (ip), vehicle: saline with Tween-80
[8] = dose: 100.0 mg/kg/injection, schedule: Q04DX002 (ip), vehicle: Klucel (hydroxypropylcellulose) (HPC)
[9] = dose: 200.0 mg/kg/injection, schedule: Q04DX002 (ip), vehicle: Klucel (hydroxypropylcellulose) (HPC)
[10] = dose: 100.0 mg/kg/injection, schedule: Q01DX009 (ip), vehicle: Klucel (hydroxypropylcellulose) (HPC)
[11] = dose: 200.0 mg/kg/injection, schedule: Q01DX009 (ip), vehicle: Klucel (hydroxypropylcellulose) (HPC)
[12] = dose: 400.0 mg/kg/injection, schedule: Q01DX009 (ip), vehicle: Klucel (hydroxypropylcellulose) (HPC)
[13] = dose: 50.0 mg/kg/injection, schedule: Q01DX009 (ip), vehicle: saline
[14] = dose: 400.0 mg/kg/injection, schedule: Q04DX002 (ip), vehicle: Klucel (hydroxypropylcellulose) (HPC)
[15] = dose: 50.0 mg/kg/injection, schedule: Q01DX001 (ip), vehicle: saline
[16] = dose: 100.0 mg/kg/injection, schedule: Q01DX001 (ip), vehicle: saline
[17] = dose: 200.0 mg/kg/injection, schedule: Q01DX001 (ip), vehicle: saline
[18] = dose: 100.0 mg/kg/injection, schedule: Q01DX009 (ip), vehicle: saline with Tween-80
[19] = dose: 100.0 mg/kg/injection, schedule: Q04DX003 (ip), vehicle: saline with Tween-80
[20] = dose: 200.0 mg/kg/injection, schedule: Q01DX009 (ip), vehicle: saline with Tween-80
[21] = dose: 200.0 mg/kg/injection, schedule: Q04DX003 (ip), vehicle: saline with Tween-80
[22] = dose: 400.0 mg/kg/injection, schedule: Q01DX009 (ip), vehicle: saline with Tween-80
[23] = dose: 400.0 mg/kg/injection, schedule: Q04DX003 (ip), vehicle: saline with Tween-80
[24] = dose: 400.0 mg/kg/injection, schedule: Q01DX001 (ip), vehicle: saline

## O=C1c2ccccc2C(=O)C2C3C=CC(CC3)C12 (configuration not stated)
dose: 50.0 mg/kg/injection, schedule: Q01DX001 (ip), vehicle: carboxymethylcellulose (CMC)
  T/C: 100 % of control
dose: 100.0 mg/kg/injection, schedule: Q01DX001 (ip), vehicle: carboxymethylcellulose (CMC)
  T/C: 97 % of control
dose: 200.0 mg/kg/injection, schedule: Q01DX001 (ip), vehicle: carboxymethylcellulose (CMC)
  T/C: 97 % of control
dose: 400.0 mg/kg/injection, schedule: Q01DX001 (ip), vehicle: carboxymethylcellulose (CMC)
  T/C: 97 % of control

## CSC(c1ccccc1Cl)=[N+]1CCCCC1
[1]
  T/C: 104 % of control
[2]
  T/C: 88 % of control
[3]
  T/C: 93 % of control

## CC(=O)OC1CC(n2cc(C)c(=O)[nH]c2=O)OC1COC(c1ccccc1)(c1ccccc1)c1ccccc1 (configuration not stated)
dose: 100.0 mg/kg/injection, schedule: Q01DX005 (ip), vehicle: saline
  T/C: 109 % of control
dose: 200.0 mg/kg/injection, schedule: Q01DX005 (ip), vehicle: saline
  T/C: 98 % of control

## ClC1=C(Cl)C(Cl)(Cl)SC1(Cl)Cl
dose: 3.12 mg/kg/injection, schedule: Q01DX009 (ip), vehicle: acetone
  T/C: 90 % of control
dose: 6.25 mg/kg/injection, schedule: Q01DX009 (ip), vehicle: acetone
  T/C: 101 % of control
dose: 12.5 mg/kg/injection, schedule: Q01DX001 (ip), vehicle: acetone
  T/C: 99 % of control
dose: 12.5 mg/kg/injection, schedule: Q01DX009 (ip), vehicle: acetone
  T/C: 96 % of control
dose: 12.5 mg/kg/injection, schedule: Q04DX003 (ip), vehicle: acetone
  T/C: 92 % of control
dose: 25.0 mg/kg/injection, schedule: Q01DX001 (ip), vehicle: acetone
  T/C: 100 % of control
dose: 50.0 mg/kg/injection, schedule: Q01DX001 (ip), vehicle: acetone
  T/C: 99 % of control

## CCSC(=N)N
[4]
  T/C: 118 % of control
[5]
  T/C: 104 % of control
[6]
  T/C: 91 % of control

## CC(=O)OCCN1CCCCC1
[4]
  T/C: 94 % of control
[5]
  T/C: 94 % of control
[6]
  T/C: 97 % of control

## O=C(O)C(O)CBr (configuration not stated)
dose: 12.5 mg/kg/injection, schedule: Q01DX009 (ip), vehicle: saline with Tween-80
  T/C: 103 % of control
dose: 25.0 mg/kg/injection, schedule: Q01DX009 (ip), vehicle: saline with Tween-80
  T/C: 95 % of control
[7]
  T/C: 98 % of control

## O=C1c2ccccc2S(=O)N1OCc1ccccc1 (configuration not stated)
[8]
  T/C: 88 % of control
[9]
  T/C: 100 % of control

## CCC(=O)C(=O)Cc1cc[n+]([O-])c2ccccc12
[1]
  T/C: 102 % of control
[2]
  T/C: 97 % of control
[3]
  T/C: 113 % of control

## CCCCNC(=O)C(=O)c1ccccc1NC(C)=O
[10]
  T/C: 86 % of control
[11]
  T/C: 87 % of control
[12]
  T/C: 97 % of control

## CC(=O)OCC1OC(n2cnc3c(=S)nc[nH]c32)C(OC(C)=O)C1OC(C)=O (configuration not stated)
dose: 6.5 mg/kg/injection, schedule: Q01DX Z (ip), vehicle: carboxymethylcellulose (CMC)
  T/C: 122 % of control
dose: 13.0 mg/kg/injection, schedule: Q01DX Z (ip), vehicle: carboxymethylcellulose (CMC)
  T/C: 113 % of control
dose: 40.0 mg/kg/injection, schedule: Q01DX Z (ip), vehicle: carboxymethylcellulose (CMC)
  T/C: 151 % of control
dose: 180.0 mg/kg/injection, schedule: Q01DX Z (ip), vehicle: carboxymethylcellulose (CMC)
  T/C: 107 % of control

## O=C(CCl)NCc1cnccn1
[13]
  T/C: 95 % of control
dose: 100.0 mg/kg/injection, schedule: Q01DX009 (ip), vehicle: saline
  T/C: 107 % of control
dose: 100.0 mg/kg/injection, schedule: Q04DX003 (ip), vehicle: saline
  T/C: 98 % of control
dose: 200.0 mg/kg/injection, schedule: Q04DX003 (ip), vehicle: saline
  T/C: 104 % of control

## O=C(/C=C(\C(=O)c1ccccc1)c1ccccc1)c1ccc(-c2ccccc2)cc1
[8]
  T/C: 97 % of control
[9]
  T/C: 101 % of control
[14]
  T/C: 93 % of control

## CCOC(=O)C(C)N1C(=O)c2ccccc2C1=O (configuration not stated)
[8]
  T/C: 100 % of control
[9]
  T/C: 104 % of control
[14]
  T/C: 100 % of control

## Cc1nnc2nc3c(nn12)c1ccccc1n3C
dose: 6.25 mg/kg/injection, schedule: Q04DX002 (ip), vehicle: saline
  T/C: 100 % of control
dose: 12.5 mg/kg/injection, schedule: Q04DX002 (ip), vehicle: saline
  T/C: 103 % of control
dose: 25.0 mg/kg/injection, schedule: Q04DX002 (ip), vehicle: saline
  T/C: 96 % of control

## Cc1ccc(S(=O)(=O)OCCN(CCO)c2cn(C(c3ccccc3)(c3ccccc3)c3ccccc3)c(=O)n(C(c3ccccc3)(c3ccccc3)c3ccccc3)c2=O)cc1
[15]
  T/C: 93 % of control
[16]
  T/C: 93 % of control
[17]
  T/C: 93 % of control

## Cc1cc([N+](=O)[O-])c(Nc2ccc(C)c(Cl)c2)c([N+](=O)[O-])c1
[8]
  T/C: 93 % of control
[9]
  T/C: 91 % of control
[14]
  T/C: 96 % of control

## Cc1ccc(S(=O)(=O)OCCc2ccccc2)cc1
[18]
  T/C: 100 % of control
[19]
  T/C: 102 % of control
[20]
  T/C: 100 % of control
[21]
  T/C: 102 % of control
[22]
  T/C: 96 % of control
[23]
  T/C: 100 % of control

## CN(CS(=O)(=O)O)c1cc(F)cc(F)c1
[15]
  T/C: 102 % of control
[16]
  T/C: 102 % of control
[17]
  T/C: 98 % of control
[24]
  T/C: 98 % of control

## CC1CC(C)S(=O)(=O)C1 (configuration not stated)
dose: 12.5 mg/kg/injection, schedule: Q01DX009 (ip), vehicle: saline
  T/C: 94 % of control
dose: 12.5 mg/kg/injection, schedule: Q04DX003 (ip), vehicle: saline
  T/C: 97 % of control
dose: 25.0 mg/kg/injection, schedule: Q01DX001 (ip), vehicle: saline
  T/C: 104 % of control
dose: 25.0 mg/kg/injection, schedule: Q01DX009 (ip), vehicle: saline
  T/C: 108 % of control
dose: 25.0 mg/kg/injection, schedule: Q04DX003 (ip), vehicle: saline
  T/C: 95 % of control
[15]
  T/C: 104 % of control
[13]
  T/C: 91 % of control
dose: 50.0 mg/kg/injection, schedule: Q04DX003 (ip), vehicle: saline
  T/C: 93 % of control

## NC(CS(N)(=O)=O)C(=O)O (configuration not stated)
dose: 75.0 mg/kg/injection, schedule: Q01DX001 (ip), vehicle: saline
  T/C: 97 % of control
dose: 150.0 mg/kg/injection, schedule: Q01DX001 (ip), vehicle: saline
  T/C: 103 % of control
dose: 300.0 mg/kg/injection, schedule: Q01DX001 (ip), vehicle: saline
  T/C: 102 % of control

## CC(=O)OC1CCSCC1
[19]
  T/C: 101 % of control
[21]
  T/C: 93 % of control
[23]
  T/C: 103 % of control

## N#C/C(=C\c1cccs1)c1ccc([N+](=O)[O-])cc1
[10]
  T/C: 96 % of control
[11]
  T/C: 86 % of control
[12]
  T/C: 91 % of control

## Cc1ccccc1C1c2ccccc2C(=O)c2cccc(C)c21 (configuration not stated)
[18]
  T/C: 101 % of control
[19]
  T/C: 89 % of control
[20]
  T/C: 101 % of control
[21]
  T/C: 102 % of control
[22]
  T/C: 97 % of control
[23]
  T/C: 94 % of control

## NC(=O)N(N)CCO
[16]
  T/C: 102 % of control
[17]
  T/C: 91 % of control
[24]
  T/C: 93 % of control

## CCOC(=O)NC(CI)c1ccccc1 (configuration not stated)
[7]
  T/C: 96 % of control
[18]
  T/C: 88 % of control
[20]
  T/C: 96 % of control

## CCN(C(=O)c1ccc([N+](=O)[O-])cc1)C(c1ccco1)P(=O)(c1ccccc1)c1ccccc1 (configuration not stated)
dose: 100.0 mg/kg/injection, schedule: Q04DX002 (ip), vehicle: saline with Tween-80
  T/C: 87 % of control
dose: 200.0 mg/kg/injection, schedule: Q04DX002 (ip), vehicle: saline with Tween-80
  T/C: 87 % of control
dose: 400.0 mg/kg/injection, schedule: Q04DX002 (ip), vehicle: saline with Tween-80
  T/C: 93 % of control

## COC(=O)C1=CCN(C)CC1
[16]
  T/C: 93 % of control
[17]
  T/C: 101 % of control
[24]
  T/C: 93 % of control

## CC(C#N)(Cc1ccccc1)Nc1ccccc1 (configuration not stated)
[7]
  T/C: 102 % of control
[18]
  T/C: 101 % of control
[20]
  T/C: 96 % of control

## Cc1cccc([N+](=O)[O-])c1O
[8]
  T/C: 99 % of control
[9]
  T/C: 95 % of control
[14]
  T/C: 87 % of control
